How the values were obtained:
[1] = Chelation study by ESI-MS, Fe^3+ solution; format: binding; conditions: 10:1 metal:compound, 45 minutes of mixing
Method: (§1) The relative amount of ions bound by JHX-1-JHX-8 was determined by electrospray ionization mass spectrometry (ESI-MS) according to the method of Baron and Hering (Baron and Hering (1998) Spectrometry J. Environ. Qual., 27:844-850). In this method solutions containing Fe^2+, Fe^3+, Cu^1+, Cu^2+, Zn^2+, Ca^2+, Mg^2+ were mixed with compound in ratios of 10:1, 1:1, and 1:10. After 45 minutes of mixing, each solution was directly infused into the MS with constant ionization energy and the relative decreases of the parent peaks in these solutions were determined. […] FIG. 3 illustrates ion binding with increased Fe^+2 concentrations results in decreased compound parent peak heights by ESI-MS when compounds contain appropriate functional groups for metal ion chelation.

[2] = Chelation study by ESI-MS, Cu^1+ solution; format: binding; conditions: 10:1 metal:compound, 45 minutes of mixing
Method: as §1

[3] = Chelation study by ESI-MS, Cu^2+ solution; format: binding; conditions: 10:1 metal:compound, 45 minutes of mixing
Method: as §1

[4] = Chelation study by ESI-MS, Zn^2+ solution; format: binding; conditions: 10:1 metal:compound, 45 minutes of mixing
Method: as §1

[5] = Chelation study by ESI-MS, Ca^2+ solution; format: binding; conditions: 10:1 metal:compound, 45 minutes of mixing
Method: as §1

[6] = Chelation study by ESI-MS, Mg^2+ solution; format: binding; conditions: 10:1 metal:compound, 45 minutes of mixing
Method: as §1

[7] = Chelation studies by ESI-MS, overall statement on ion binding; conditions: binding order Cu^1+=Cu^2+>Fe^2+=Fe^3+>Zn^2+; no binding with Ca^2+ or Mg^2+
Method: as §1

[8] = Drug levels in target tissues after oral administration; format: in vivo, Sprague Dawley rats; conditions: normal young rats; for drug detected in the brain: chow containing 0.05% drug for 6 days; for Lens drug level / retinal drug level: chow containing 0.05% drug for 6 days (80±10 mg/kg/day), HPLC; for retinal drug level: posterior segment
Method: (§2) To determine whether JHX-4 and JHX-8 can reach the target tissues of lens, retina and brain after oral administration, two groups of 4 young (100 g) Sprague Dawley rats were administered rat chow containing 0.05% of either drug for 6 days. […] Lens and posterior segments were homogenized in glass homogenizers in ice-cold PBS, pH 7.4, after addition of an aliquot of JHX-1 as an internal standard. The homogenates were deproteinized with 48 mM NaF and centrifuged. The supernatant was extracted with acetone. The acetone extract was evaporated under vacuum and the residue was dissolved in acetonitrile. Whole brains were similarly extracted; however, brain homogenates were deproteinized with equal amounts of 0.3 N Na2SO4 and 0.3 N Ba(OH)2. Drug levels were measured by reverse-phase HPLC with a Phenomenex LUNA 5 μm C18 column and an isocratic elution of 1:1 MeOH:Water. Detection was conducted at 245 nm and compound levels were quantified using standard curves. Lens and retinal drug levels were 200±11 and 1373±38 ng/mg protein for JHX-4 and 90±5 and 1060±12 ng/mg protein for JHX-8 respectively. Only trace amounts of either compound were detected in the brain.

[9] = tested on: diabetic cataract formation; assay: Cataract formation in diabetic rats; format: in vivo; conditions: for blood sugar / toxic effects: diabetic rats; for delay of vacuole formation / delay of cortical cataracts / lens sorbitol levels: streptozotocin diabetic rats; for delay of vacuole formation / delay of cortical cataracts: 0.025% in chow; for delay of vacuole formation: versus untreated diabetic group (14 days); for delay of cortical cataracts: versus untreated diabetic group (29 days); for lens sorbitol levels: end of study (47 days)
Method: (§3) Diabetes was induced in 100 g Sprague Dawley rats with streptozotocin injection (75 mg/kg) and all rats with blood sugar levels >300 mg/dL were divided into 4 groups of 8 rats each. One group received only standard rat chow (untreated diabetic) while each of the other groups received chow containing either 0.0125% ARI Al1576, 0.025% JHX-4 or 0.025% JHX-8. Lens changes were monitored by at 3-5 day intervals by slit lamp following tropicamide mydriasis. As summarized in FIGS. 8A-8C, vacuole formation began by 14 days in the untreated diabetic group with cortical opacities observed by 29 days and mature cataracts by 44 days. […] In the two antioxidant treated groups, vacuole formation was delayed by 19 and 11 days by JHX-4 and JHX-8, respectively, and cortical cataracts by 9 and 3 days, respectively. At the end of the study (47 days) all rats were equally diabetic with HbA1C levels >11.9%. All eyes were enucleated and lens sorbitol levels were measured as previously described (Kador et al. (2007) J. Ocul. Pharmacol. Ther., 23:116-23). […] Tissue levels of JHX-4 and -8 in the lens, neural retina and brain were determined after 47 days of feeding as described above (FIG. 10). […] Overall drug levels in both the lens and retina were ca. 3-fold higher in the diabetic rats with brain levels also now present. This increase may be due to either an accumulation of drug, or increased permeability of tissues and the BBB to drug in streptozotocin diabetic rats (Mooradian et al. (2005) Diabetes, 54:2977-82).

[10] = Tissue drug levels in diabetic rats after 47 days of feeding; format: in vivo, Sprague Dawley rats
Method: as §2, §3

[11] = tested on: lens opacities after whole head irradiation; format: in vivo; conditions: for appearance of lens opacities / delay of lens PSC opacities / delay of the average (50% in all animals) formation of PSC punctuate opacities: 15 Gy whole head irradiation; for delay of lens PSC opacities / delay of the average (50% in all animals) formation of PSC punctuate opacities: compared to untreated rats, JHX 0.025 wt % in chow, Pantethine 1 g/kg i.p.; for toxic effects: irradiated rats
Source text: Cataracts were induced by whole head gamma irradiation in 24 male Long Evans (150-200 g) rats. […] Because of the amount of drug required for this long-term study, the percentage of JHX-4 and JHX-8 utilized was ½ of the dose used in the diabetic study. […] Gamma radiation (6000 Curie Cobalt-60 Source, UNMC Experimental Radiation Facility) was delivered to the whole head of unanesthetized, restrained rats at a dose rate of dose 0.341 Gy/minute for a total dose of 15 Gy. Lens changes were monitored every 7 days by portable slit lamp and recorded on a scale from 0-6 with 0: Clear, 1: Posterior subcapsular haze, 2: Spokes, suture enhancement and powdery posterior subcapsular deposits, 3: Prominent posterior subcapsular punctate opacities with spokes and suture enhancement, 4: Posterior subcapsular opacity blocks appearance of retinal vessels, 5: Start cortical involvement, 6: Total lens opacity, visible with naked eye. Since whole head irradiation results in a temporary loss of salivary gland function, all rats received Nutra-Gel (Bio-Serv) with/without JHX-4 or -8 for the first 66 days. Subsequently, all rats received standard rat chow with/without JHX-4 or -8.

[12] = Chow consumption, body weight and salivary gland protection after whole head irradiation; format: in vivo, Long Evans rats; conditions: for body weight after irradiation: 15 Gy whole head irradiation; for protection of the salivary gland: after whole head irradiation
Source text: Cataracts were induced by whole head gamma irradiation in 24 male Long Evans (150-200 g) rats. […] Because of the amount of drug required for this long-term study, the percentage of JHX-4 and JHX-8 utilized was ½ of the dose used in the diabetic study. […] Lens changes were monitored every 7 days by portable slit lamp and recorded on a scale from 0-6 with 0: Clear, 1: Posterior subcapsular haze, 2: Spokes, suture enhancement and powdery posterior subcapsular deposits, 3: Prominent posterior subcapsular punctate opacities with spokes and suture enhancement, 4: Posterior subcapsular opacity blocks appearance of retinal vessels, 5: Start cortical involvement, 6: Total lens opacity, visible with naked eye. […] Subsequently, all rats received standard rat chow with/without JHX-4 or -8.

Row | Structure (SMILES) | % Parent Peak Remaining at 10:1 Solution of Metal:Compound [1] [%] | % Parent Peak Remaining at 10:1 Solution of Metal:Compound [2] [%] | % Parent Peak Remaining at 10:1 Solution of Metal:Compound [3] [%] | % Parent Peak Remaining at 10:1 Solution of Metal:Compound [4] [%] | % Parent Peak Remaining at 10:1 Solution of Metal:Compound [5] [%] | % Parent Peak Remaining at 10:1 Solution of Metal:Compound [6] [%] | ion binding [7] | drug detected in the brain [8] | Lens drug level [8] [ng/mg protein] | retinal drug level [8] [ng/mg protein] | blood sugar [9] | toxic effects [9] | delay of vacuole formation [9] [days] | delay of cortical cataracts [9] [days] | lens sorbitol levels [9] | brain levels of drug [10] | drug levels in both the lens and retina, diabetic rats versus normal rats [10] | appearance of lens opacities [11] | delay of lens PSC opacities [11] [days] | delay of the average (50% in all animals) formation of PSC punctuate opacities [11] [days] | other results
1 | CN(C)S(=O)(=O)N1C(=O)CN(c2ncc(O)cn2)CC1=O [JHX-4, 1-N,N′-dimethylsulfamoyl-4-(5-hydroxy-2-pyrimidyl)piperazine-2,6-dione] | 8.2 | 4.2 | 3.0 | 12.7 | 100.0 | 100.0 | bind ions | trace amounts | 200±11 | 1373±38 | did not alter | No apparent toxic effects | 19 | 9 | did not alter | now present | ca. 3 fold | delayed | 38 | 53 | toxic effects [11]: No apparent toxic effects; body weight after irradiation [12]: reducing post-irradiation weight loss; protection of the salivary gland [12]: provided systemic protection
2 | COc1nc(N2CC(=O)N(S(=O)(=O)N(C)C)C(=O)C2)nc(OC)c1O [JHX-8, 1-N,N′-dimethylsulfamoyl-4-(4,6-dimethoxy-5-hydroxy-2-pyrimidyl)piperazine-2,6-dione] | 8.2 | 4.0 | 3.6 | 14.6 | 100.0 | 100.0 | bind ions | trace amounts | 90±5 | 1060±12 | did not alter | No apparent toxic effects | 11 | 3 | did not alter | now present | ca. 3 fold | delayed | 47 | 58 | toxic effects [11]: No apparent toxic effects; body weight after irradiation [12]: reducing post-irradiation weight loss; protection of the salivary gland [12]: provided systemic protection

— patent publication US8268849B2, “Multifunctional Antioxidants and methods of use thereof” (priority 2007, dated 2012)
